Each block holds one compound with its values, some of them ahead of it.
What was measured:
[1] = test system: KRAS^G12C; conditions: role: inhibitor, background statement, cited from earlier work
[2] = Stability testing: dissolution (FaSSIF), Example 2; assay type: physicochemical; conditions: FaSSIF pH 6.50; all crystalline samples, first two timepoints of amorphous samples
Experimental: (§1) Stability testing of the three ASDs prepared in Example 1 was conducted over 2 months (T=0, 1 month and 2 months) using XRPD, TGA, DSC, PSD, and dissolution tests (FaSSIF and biorelevant media).
(§2) Stability Testing: ASD samples were stored in low density polyethylene (LPDE) bags placed in a heat-sealed aluminum foil pouch along with desiccant. Foil pouches were then placed into a stability chamber at 25 °C/60% RH and taken out for stability testing (XRPD, TGA, DSC PSD, dissolution and biorelevant dissolution) at specified timepoints.
Dissolution (FaSSIF): The dissolution properties of ASDs 1-3 and the control spray-dried sotorasib were assessed as described herein. 5 mg of amorphous sotorasib (control), 5 mg of crystalline sotorasib (control), and 20 mg of ASDs1-3 as listed in Table 1 were added to separate 20 mL vials of FaSSIF (pH 6.50) and samples were collected at 5, 15, 20, 30, 60, 120, 180 min timepoints. […] The mobile phases were A:Water with 0.1% trifluoroacetic acid and B:Acetonitile with 0.1% trifluoroacetic acid. The method was a reverse gradient of 5% B 95% A to 98% B 2% A over 15 minutes using a wavelength 254 nm for detection and quantification.

[3] = Particle size distribution (laser diffraction), Example 1; assay type: physicochemical; conditions: Example 1, Table 1
From the text: Particle Size Distribution (PSD): Analysis of each of the samples was obtained using a Sympatec Helos laser diffraction analyzer. The results of the particle size analysis are shown in Table 1 (D10, D50, and D90 values).

[4] = Stability testing: Thermal Gravimetric analysis (TGA), Example 2; assay type: physicochemical
Experimental: as §1, §2
Thermal Gravimetric analysis (TGA): TGA was performed to evaluate presence for residual solvent and any thermal transitions which may result in weight loss. TGA was performed on a TA Instruments Discovery 550 Series analyzer at 5 °C/min from ambient temperature to 200 °C in a platinum pan under dry nitrogen at 25 ml/min. Sample size was ~2-8 mg.

[5] = Stability testing: particle size distribution (PSD), Example 2; assay type: physicochemical
Experimental: as §1, §2
Particle Size Distribution (PSD): Analysis of each of the samples was obtained using a Sympatec Helos laser diffraction analyzer. The results are shown below (D10, D50, and D90 values).

[6] = Stability testing: DSC, Tg, Example 2; assay type: physicochemical
Experimental: as §1, §2
Differential Scanning Calorimetry (DSC) Analysis: DSC data is collected using a TA Instruments Q2500 DSC. Approximately, 2-6 mg of the sample was placed in a Tzero aluminum pan and sealed with Tzero lid. Method Log consist of equilibrating to −20 °C, holding Isothermal for 1.00 min, Ramping 10.00 °C/min to 160.0 °C, holding isothermal for 1.00 min, bringing down to Ramp of 10.00 °C/min to −20.00 °C, holding isothermal for 1.00 min, ramping 10.00 °C/min to 200 °C, marking end of cycle. Conditions were done under a nitrogen purge of about 50 mL/min.

[7] = Stability testing: XRPD, Example 2; assay type: physicochemical
Experimental: as §1, §2
X-Ray Powder Diffraction (XRPD) Analysis: XRPD data was obtained using a Panalytical PW3040-PRO diffractometer. Samples were scanned at room temperature (25 °C) in continuous mode from 3-45 degrees (2θ) with step size of 0.03 degrees at 45 kV and 40 mA with CuKα radiation (1.54 A). The incident beam path was equipped with a primary soller slit 0.04 rad and a divergence slit 0.38 mm, in a fixed slit mode. Samples were prepared on a low background sample holder and placed on a spinning stage with a rotation time of 4 sec.

Structure (SMILES): C=CC(=O)N1CCN(c2nc(=O)n(-c3c(C)ccnc3C(C)C)c3nc(-c4c(O)cccc4F)c(F)cc23)[C@@H](C)C1 (atropisomer, axis not shown) [Sotorasib]
activity at the target protein, atropisomers ([1]; (M)- v. (P)-configuration): more active at the target protein than the (P)-configuration
inhibition of KRAS^G12C [1]: specifically and irreversibly inhibits

solubility (samples not diluted) [2]: low solubility
Structure (SMILES): C=CC(=O)N1CCN(c2nc(=O)n(-c3c(C)ccnc3C(C)C)c3nc(-c4c(O)cccc4F)c(F)cc23)[C@@H](C)C1 [crystalline sotorasib]

D10 [3]: <1.0 μm
D50 [3]: <4.0 μm
D90 [3]: <16 μm
TGA result (weight change) ([4]; T = 0): <1%
TGA result (weight change) ([4]; T = 1 month, 25 °C/60% RH): <1%
TGA result (weight change) ([4]; T = 2 months, 25 °C/60% RH): <1%
PSD result - D10 ([5]; T = 0): 0.8 μm
PSD result - D50 ([5]; T = 0): 3.6 μm
PSD result - D90 ([5]; T = 0): 13.4 μm
PSD result - D10 ([5]; T = 1 month, 25 °C/60% RH): 0.8 μm
PSD result - D50 ([5]; T = 1 month, 25 °C/60% RH): 4.2 μm
PSD result - D90 ([5]; T = 1 month, 25 °C/60% RH): 14.4 μm
PSD result - D10 ([5]; T = 2 months, 25 °C/60% RH): 0.8 μm
PSD result - D50 ([5]; T = 2 months, 25 °C/60% RH): 3.8 μm
PSD result - D90 ([5]; T = 2 months, 25 °C/60% RH): 13.5 μm
DSC result - Tg ([6]; T = 0, n1): n1: 147.7 °C
DSC result - Tg ([6]; T = 0, n2): n2: 146.9 °C
DSC result - Tg ([6]; T = 1 month, n1, 25 °C/60% RH): n1: 148.4 °C
DSC result - Tg ([6]; T = 1 month, n2, 25 °C/60% RH): n2: 148.3 °C
DSC result - Tg ([6]; T = 2 months, n1, 25 °C/60% RH): n1: 149.1 °C
DSC result - Tg ([6]; T = 2 months, n2, 25 °C/60% RH): n2: 148.6 °C
XRPD result ([7]; T = 0): amorphous
XRPD result ([7]; T = 1 month, 25 °C/60% RH): amorphous
XRPD result ([7]; T = 2 months, 25 °C/60% RH): amorphous
Structure (SMILES): C=CC(=O)N1CCN(c2nc(=O)n(-c3c(C)ccnc3C(C)C)c3nc(-c4c(O)cccc4F)c(F)cc23)[C@@H](C)C1 [sotorasib amorphous]

Reference: patent US20260345615A1, “COMPOSITIONS COMPRISING SOTORASIB” (AMGEN INC., priority 2023, published 2026)
